The nature of the experiment: Inhibition of centrosomal clustering in human SCC114 cells expressing GFPalpha-tubulin assessed as mitotic cells with multipolar spindles by fluorescence microscopy. It is filed as functional, cell-based.
By IC50 is commonly meant the point on the concentration scale where inhibition reaches its midpoint. As to `COC1=C[C@@H](O)C[C@@H](C)[C@]12Oc1c(Cl)c(OC)cc(OC)c1C2=O`, the IC50 was over 100 µM.
In the case of `COc1cc(OC)c2c(c1Cl)O[C@]1(C2=O)C(OCC2CC2)=CC(=O)C[C@H]1C`, the IC50 was 1.8 µM.
Then `COC1=CC(=O)C[C@@H](C)[C@]12Oc1c(Cl)c(OC)cc(OC)c1C2=O` [GRISEOFULVIN], with 24 µM; and `CCCOC1=CC(=O)C[C@@H](C)[C@]12Oc1c(Cl)c(OC)cc(OC)c1C2=O`, with 6.6 µM.
Then `COC1=CC(=O)C[C@@H](C)[C@]12Oc1c(Cl)c(OC)cc(OCc3ccccc3)c1C2=O`, with over 100 µM; and `COC1=CC(=O)C[C@@H](C)[C@]12Oc1c(Cl)c(OC)c(N)c(OC)c1C2=O`, with over 100 µM; and `COc1cc(OC)c2c(c1Cl)O[C@@]1(C(=O)C(Cc3ccccc3)=C(O)C[C@H]1C)C2=O`, with over 100 µM.
Then `COC1=CC(=O)C[C@@H](C)[C@]12Oc1c(Cl)c(OC)c(NCc3ccccc3)c(OC)c1C2=O`, with over 100 µM; and `COC1=C(I)C(=O)C[C@@H](C)[C@]12Oc1c(Cl)c(OC)cc(OC)c1C2=O`, with over 100 µM; and `CCCCCOC1=CC(=O)C[C@@H](C)[C@]12Oc1c(Cl)c(OC)cc(OC)c1C2=O`, with 2.8 µM.
Take `CCCCCCOC1=CC(=O)C[C@@H](C)[C@]12Oc1c(Cl)c(OC)cc(OC)c1C2=O`: the IC50 was found to be 4 µM.
Then `COc1cc(OC)c2c(c1Cl)O[C@]1(C2=O)C(OCc2ccc(C)cc2)=CC(=O)C[C@H]1C`, with 0.9 µM; and `CCCOC1=C(I)C(=O)C[C@@H](C)[C@]12Oc1c(Cl)c(OC)cc(OC)c1C2=O`, with 2 µM; and `COc1cc(OC)c2c(c1Cl)O[C@@]1(C2=O)[C@H](C)C[C@H](O)C[C@@H]1OC`, with over 100 µM.
To `COC1=C/C(=N\N(C)C)C[C@@H](C)[C@]12Oc1c(Cl)c(OC)cc(OC)c1C2=O` belongs 27 µM; to `CCOC1=CC(=O)C[C@@H](C)[C@]12Oc1c(Cl)c(OC)cc(OC)c1C2=O`, 6.6 µM; to `CCOc1cc(OC)c(Cl)c2c1C(=O)[C@@]1(O2)C(OC)=CC(=O)C[C@H]1C`, over 100 µM.
To `COc1cc(OC)c2c(c1Cl)O[C@]1(C2=O)C(OCc2ccc(-c3ccccc3)cc2)=CC(=O)C[C@H]1C` belongs 2.9 µM; to `COC1=CC(=O)[C@@]2(Oc3c(Cl)c(OC)cc(OC)c3C2=O)[C@H](C)C1` [ISOGRISEOFULVIN], over 100 µM; to `COc1cc(OC)c2c(c1Cl)O[C@]1(C2=O)C(OCc2ccccc2)=C(I)C(=O)C[C@H]1C`, over 100 µM.
For the molecule `COc1cc(OC)c2c(c1Cl)O[C@]1(C2=O)C(OCC23CC4CC(CC(C4)C2)C3)=CC(=O)C[C@H]1C`, the IC50 stood at 3.7 µM.
Then `CCCCOC1=CC(=O)C[C@@H](C)[C@]12Oc1c(Cl)c(OC)cc(OC)c1C2=O`, with 2.5 µM.
To `COC1=CC(=O)C[C@@H](C)[C@]12Oc1c(Cl)c(OC)cc(O)c1C2=O` belongs over 100 µM.
`COc1cc(OC)c2c(c1Cl)O[C@]1(C2=O)C(OCCc2ccccc2)=CC(=O)C[C@H]1C`: the IC50 worked out at 15 µM.
Then `COc1cc(OC)c2c(c1Cl)O[C@]1(C2=O)C(=O)C(C)(C)C(=O)C[C@H]1C`, with over 100 µM; and `COc1cc(OC)c2c(c1Cl)O[C@]1(C2=O)C(OCc2ccccc2)=CC(=O)C[C@H]1C`, with 0.9 µM; and `COc1cc(OC)c2c(c1Cl)O[C@]1(C2=O)C(Oc2ccccc2)=CC(=O)C[C@H]1C`, with 1.5 µM.
Then `COc1cc(OC)c2c(c1Cl)O[C@]1(C2=O)C(OC(C)C)=CC(=O)C[C@H]1C`, with 6.8 µM.
On to `COC1=C/C(=N\O)C[C@@H](C)[C@]12Oc1c(Cl)c(OC)cc(OC)c1C2=O`, for which the IC50 amounted to 17 µM.
To `COc1cc(OC)c2c(c1Cl)O[C@]1(C2=O)C(SCc2ccccc2)=CC(=O)C[C@H]1C` belongs 1.3 µM; to `COc1cc(OC)c2c(c1Cl)O[C@]1(C2=O)C(OCc2ccccc2)=C/C(=N\O)C[C@H]1C`, 0.9 µM; to `COC1=CC(=O)C[C@@H](C)[C@]12Oc1c(Cl)c(OC)c([N+](=O)[O-])c(OC)c1C2=O`, over 100 µM.
Then `COc1cc(OC)c2c(c1Cl)O[C@@]1(C(=O)C=C(O)C[C@H]1C)C2=O`, with over 100 µM.
Then `COc1cc(OC)c2c(c1Cl)O[C@]1(C2=O)C(OC2CCCC2)=CC(=O)C[C@H]1C`, with 1.3 µM.

The values are drawn from ChEMBL document CHEMBL1138517, “Synthesis and structure-activity relationship of griseofulvin analogues as inhibitors of centrosomal clustering in cancer cells” (J Med Chem, 2009).
